Measurements taken from article PMC8406801, “Naringenin Inhibits Platelet Activation and Arterial Thrombosis Through Inhibition of Phosphoinositide 3-Kinase and Cyclic Nucleotide Signaling” (Frontiers in Pharmacology, 2021).
Values joined by “and” are separate entries in the source; they are usually repeats but may differ in a detail not shown here. Equal entries are not always repeated.

Key:
[1] = test system: washed rat platelets; experiment: ADP (5 μM)-stimulated aggregation of washed platelets (Figure S1); format: cell-based; conditions: 200, 400 and 800 μM similar efficacy
From the text: Platelet aggregation was induced by ADP using washed platelets and PRP. […]
(1 picture or pasted object on this page, not shown here)

[2] = test system: PDE extracts prepared from rat PRP (cGMP hydrolysis); experiment: Phosphodiesterase activity in platelet extracts, hydrolysis of cGMP (HPLC); format: biochemical; conditions: vehicle = 100%, single replicates
Protocol: The effects of naringenin on PDE activity were determined using high-performance liquid chromatography (HPLC) ([Hu et al., 2011]). Briefly, PRP was pelleted by centrifugation for 10 min at 900 × g and homogenized in PBS containing 0.1% Triton X-100 using an ultrasonic homogenizer. After centrifugation at 12,000 × g for 20 min at 4°C, the supernatant was subjected to PDE activity assay.
DMSO vehicle or different concentrations naringenin were added to assay buffer (137 mM NaCl, 2.7 mM KCl, 8.8 mM Na2HPO4, 1.5 mM KH2PO4, 1 mM CaCl2, 1 mM MgCl2, pH 7,4) containing cAMP or cGMP. The reaction was initiated by adding 30 μL PDE extracts prepared from rat PRP as described above. Some extracts were boiled for 3 min to inactivate PDE before addition. After incubation for 30 min at […], the reaction was terminated by boiling the mixture for 3 min. Subsequently, the mixture was cooled on ice followed by centrifugation at 12,000 × g for 20 min at 4°C. The supernatant was subjected cAMP or cGMP assay using HPLC. PDE activity was expressed as percentages of the hydrolysis of cAMP or cGMP.

[3] = test system: washed platelets on collagen-coated coverslips; experiment: Platelet adhesion on collagen-coated surface; format: cell-based, rat; conditions: for Area (%) of platelets adherent on collagen: single replicates
Protocol: Washed platelets were treated with naringenin or vehicle at 37°C for 10 min in the presence of 2 mM CaCl2 ([Suzuki-Inoue et al., 2001]). The platelets were added to collagen-coated coverslips and incubated at 37°C for 45 min. After unbound platelets were removed by washing, adherent platelets were fixed with 4% paraformaldehyde, permeabilized with 0.1% Triton X-100 and stained with TRITC-conjugated phalloidin (1 μg/ml). Adherent platelets were viewed using an inverted fluorescence microscope (Nikon TE-2000S) and processed using Image J software.

[4] = test system: washed rat platelets; experiment: ADP (10 μM)-induced aggregation of washed rat platelets; format: cell-based; conditions: for ADP-induced platelet aggregation (control group taken as 100%): mean ± SD, n = 6
Protocol: Platelet-rich plasma (PRP) was obtained, and after the addition of 100 ng/ml PGE1, platelets were pelleted at 900 × g for 10 min. […] Washed platelets were preincubated with vehicle (0.4% dimethyl sulfoxide) or various concentrations of naringenin in the presence of 2 mM CaCl2 for 5 min at 37°C, and then further stimulated by ADP (10 μM), thrombin (0.2 U/mL) or collagen (2 μg/ml). The maximum platelet aggregation rate was detected within 5 min with continuous stirring.
Platelet aggregation was induced by ADP using washed platelets and PRP. Washed platelets were preincubated with vehicle (containing 0.4% DMSO) or different doses (100, 200, 400, and 800 μM) of naringenin or naringin for 5 min before activation with ADP (10 μM) for 5 min.
FIGURE 1 Effects of naringenin and naringin on platelet aggregation. Chemical structure of naringin (A) and naringenin (B). The effects of naringin (C) or naringenin (D) on PRP were measured following stimulation with 10 μmol/L ADP. Rat washed platelet aggregation performed with or without different concentrations of naringin (E) or naringenin (F) was recorded after stimulation with 10 μmol/L ADP. Similarly, Washed platelet aggregation performed with vehicle or various concentrations of naringenin was recorded after stimulation with 0.2 U/mL thrombin (G) or 2 μg/ml collagen (H). WP represents washed platelets. Data are expressed as means ± SD (n = 6), the level of aggregation obtained at 5 min with vehicle-treated samples (0 μM) was taken as 100%. *p < 0.05, **p < 0.01, ***p < 0.001 compared with the vehicle control group.

[5] = test system: GSK3β Ser9 phosphorylation; experiment: Immunoblotting of phospho-GSK3β (Ser9) in ADP-stimulated washed platelets; format: cell-based, rat; conditions: for p-GSK3β / t-GSK3β / p-GSK3β / t-GSK3β (Fold to ADP only): ADP 10 μmol/L, single replicates; for p-GSK3β / t-GSK3β: raw data
Protocol: For in vitro platelet aggregation, aliquots of washed platelets were preincubated with vehicle or various concentrations of naringenin for 5 min and stimulated with ADP (10 μmol/L) under stirring at 37°C for 5 min. For ex vivo platelet aggregation, PRP was incubated at 37°C for 5 min and stimulated with ADP (5 μmol/L) under stirring at 37 °C. The platelet aggregation was terminated by adding ethylenediaminetetraacetic acid (EDTA; 10 mM). Total protein was prepared using RIPA lysis buffer and protein content was determined by bicinchoninic acid (BCA) protein assay kit. Equal amounts of platelet proteins (30 μg) were separated on 10% SDS polyacrylamide gel electrophoresis (SDS-PAGE) and then transferred to poly vinylidene difluoride (PVDF) membranes and subjected to western blot. Blots were blocked with TBS-Tween 20 containing 5% BSA and probed with primary antibodies diluted in blocking solution at 4°C overnight followed by incubation with the corresponding HRP secondary antibodies. The protein bands were visualized using enhanced chemiluminescence (ECL).
FIGURE 4 Naringenin inhibits PI3K-mediated signaling in ADP-induced platelets. Washed rat platelets were preincubated without or with naringenin at 37°C for 5 min, and then stimulated with ADP (10 μmol/L) under stirring for 5 min. Platelet proteins were then extracted and analyzed by immunoblotting using PI3Kp110β antibody (A) and phospho-specific antibodies such as Akt^Ser473 (B), Akt^Thr308 (C), ERK1/2^Thr202/Tyr204 (D) and GSK3β^Ser9 (E). Total level of GAPDH was measured on each sample as a loading control. The blots shown are representative of three separate experiments. The relative protein expression levels were quantified by ImageJ 1.47v software. The level of relative protein expression obtained with vehicle control (0 μM) was taken as 1. R represents the level of relative protein expression in resting platelets. Data are expressed as means ± SD (n = 3). *p < 0.05, **p < 0.01, ***p < 0.001 compared with the vehicle control group.

## O=C1C[C@@H](c2ccc(O)cc2)Oc2cc(O)cc(O)c21 [Naringenin]
[1]
  effect on ADP (5 μM)-stimulated platelet aggregation: significant levels of inhibition
[2]; 100 μM
  PDE activity (%): 55.89% and 98.26% and 70.79%
[2]; 200 μM
  PDE activity (%): 55.23% and 54.30% and 66.68%
[2]; 400 μM
  PDE activity (%): 64.97% and 53.69% and 55.23%
[2]; 800 μM
  PDE activity (%): 56.89% and 50.38% and 49.55%
[3]; 100 μM
  Area (%) of platelets adherent on collagen: 29.32% and 16.92% and 17.38%
[3]; 200 μM
  Area (%) of platelets adherent on collagen: 17.54% and 13.16% and 17.35%
[3]; 400 μM
  Area (%) of platelets adherent on collagen: 12.99% and 15.28% and 9.21%
[3]; 800 μM
  Area (%) of platelets adherent on collagen: 2.55% and 1.74% and 1.66%
[3]; 200, 400 and 800 μM
  platelet adhesion on collagen-coated surface: significantly reduced
[4]; ADP 10 μM
  IC50: ~118 µM
[4]; ADP-induced, 100 μM
  reduction of aggregation of washed platelets: 45%
[4]; Figure 5A: washed platelets, ADP 10 μM, naringenin 200 μM alone, single replicates
  Aggregation (%): 38.3% and 37.5% and 34.7% and 44.0% and 29.6% and 42.4%
[4]; Rattus norvegicus, Platelet, ADP 10 μM
  IC50: 118 ± 10.4 µM
[4]; Rattus norvegicus, Platelet, washed platelets, ADP 10 μmol/L, compound 100 μM, single replicates, read-out: Aggregation % of control
  activity at 100 µM: 50.4%
[4]; Rattus norvegicus, Platelet, washed platelets, ADP 10 μmol/L, compound 400 μM, single replicates, read-out: Aggregation % of control
  activity at 400 µM: 12%
[4]; Rattus norvegicus, Platelet, washed platelets, ADP 10 μmol/L, compound 800 μM, single replicates, read-out: Aggregation % of control
  activity at 800 µM: 6.7%
[4]; washed platelets, ADP 10 μM, 800 μM
  level of inhibition relative to naringin: 11 fold
[4]; washed platelets, ADP 10 μM, compound 100 μM
  ADP-induced platelet aggregation (control group taken as 100%): 54.5 ± 6.2%
[4]; washed platelets, ADP 10 μM, compound 800 μM
  ADP-induced platelet aggregation (control group taken as 100%): 6.3 ± 1.7%
[4]; washed platelets, ADP 10 μmol/L, compound 100 μM, raw data, single replicates
  Aggregation (%): 35.6% and 34.2% and 43.2% and 37.5% and 36.0% and 44.7%
[4]; washed platelets, ADP 10 μmol/L, compound 100 μM, single replicates, 100 µM
  Aggregation % of control: 48.4 % of control and 61.1 % of control and 53.1 % of control and 51.0 % of control and 63.3 % of control
[4]; washed platelets, ADP 10 μmol/L, compound 200 μM, raw data, single replicates
  Aggregation (%): 24.7% and 26.3% and 34.7% and 21.2% and 13.9% and 29.4%
[4]; washed platelets, ADP 10 μmol/L, compound 200 μM, single replicates, 200 µM
  Aggregation % of control: 35.0 % of control and 37.2 % of control and 49.1 % of control and 30.0 % of control and 19.7 % of control and 41.6 % of control
[4]; washed platelets, ADP 10 μmol/L, compound 400 μM, raw data, single replicates
  Aggregation (%): 8.5% and 6.2% and 6.9% and 8.1% and 8.7% and 7.6%
[4]; washed platelets, ADP 10 μmol/L, compound 400 μM, single replicates, 400 µM
  Aggregation % of control: 8.8 % of control and 9.8 % of control and 11.5 % of control and 12.3 % of control and 10.8 % of control
[4]; washed platelets, ADP 10 μmol/L, compound 800 μM, raw data, single replicates
  Aggregation (%): 4.7% and 3.7% and 5.6% and 6.1% and 3.6% and 3.1%
[4]; washed platelets, ADP 10 μmol/L, compound 800 μM, single replicates, 800 µM
  Aggregation % of control: 5.2 % of control and 7.9 % of control and 8.6 % of control and 5.1 % of control and 4.4 % of control
[5]; 100 μM
  p-GSK3β / t-GSK3β: 0.3609 and 0.3982 and 0.3384
  p-GSK3β / t-GSK3β (Fold to ADP only): 0.5893 Fold to ADP only and 0.6502 Fold to ADP only and 0.5525 Fold to ADP only
[5]; 200 μM
  p-GSK3β / t-GSK3β: 0.4301 and 0.3431 and 0.4790
  p-GSK3β / t-GSK3β (Fold to ADP only): 0.7022 Fold to ADP only and 0.5603 Fold to ADP only and 0.7821 Fold to ADP only
[5]; 400 μM
  p-GSK3β / t-GSK3β: 0.3379 and 0.5076 and 0.5137
  p-GSK3β / t-GSK3β (Fold to ADP only): 0.5517 Fold to ADP only and 0.8288 Fold to ADP only and 0.8388 Fold to ADP only
[5]; 800 μM
  p-GSK3β / t-GSK3β: 0.4062 and 0.4495 and 0.5157
  p-GSK3β / t-GSK3β (Fold to ADP only): 0.6632 Fold to ADP only and 0.7339 Fold to ADP only and 0.8420 Fold to ADP only
[5]; ADP-induced platelets
  influence on GSK3β phosphorylation: no influence
